Experimental data from patent US11214594B2, “Antimicrobial peptide having synergistic antibacterial effect with antibiotics on multidrug resistant bacteria, and use thereof” (priority 2016, dated 2022).
Values after ≈ are worked out from the molar mass of the structure shown. Like-named read-outs stand apart in the source and are kept apart here. Where a SMILES comes first, the peptide text is derived from it.

How the values were obtained:
A. baumannii [1] = test: MIC of antibiotic during combined treatment with antimicrobial peptide; format: cell-based, Acinetobacter baumannii; details: for Antibiotic MIC, Erythromycin / Antibiotic MIC, Linezolid / Antibiotic MIC, Vancomycin: A. baumannii
How it was run: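 Using MH broth, we determined combination MICs by titrating the antibiotic into wells and then repeating under the reverse dilution scheme.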

MDRPA 2002 = format: cell-based, Pseudomonas aeruginosa
How it was run: (§1)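 Broth microdilution in MH medium: bacterial strains diluted to 2×10^6 CFU were mixed with equal volumes of peptide serially diluted twofold in MH medium.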

MDRPA 2003 = format: cell-based, Pseudomonas aeruginosa
How it was run: as §1

MDREC 1229 = format: cell-based, Escherichia coli
How it was run: (§2)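 Broth microdilution in MH medium; strains were diluted to 2×10^6 CFU per ml before plating. Peptide was serially diluted stepwise at 2:1 starting from its MIC, and MH-diluted antibiotic was then added to determine MIC. The reversed arrangement was also tested.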

E. coli = format: cell-based, Escherichia coli; details: E. coli
How it was run: as §2

A. baumannii [2] = test: microbe, parasite or virus in culture; format: cell-based, Acinetobacter baumannii
How it was run: as §1

MDRAB 12035 [3] = test: microbe, parasite or virus in culture; format: cell-based, Acinetobacter baumannii
How it was run: as §1

B. subtilis = test: microbe, parasite or virus in culture; format: cell-based, Bacillus subtilis
How it was run: as §1

MDRAB 12035 [4] = test: MIC of antibiotic during combined treatment with antimicrobial peptide; format: cell-based, Acinetobacter baumannii
How it was run: as §2

[5] = combined with peptide at 1 μg/ml
[6] = combined with peptide at 2 μg/ml
[7] = combined with peptide at 4 μg/ml
[8] = combined with peptide at 6 μg/ml
[9] = combined with peptide at 8 μg/ml
[10] = combined with peptide at 16 μg/ml
[11] = combined with peptide at 32 μg/ml
[12] = combined with peptide at 64 μg/ml
[13] = with Erythromycin […] (Conc./MIC 1)
[14] = peptide treatment concentration 1 μg/ml
[15] = peptide treatment concentration 2 μg/ml
[16] = peptide treatment concentration 4 μg/ml
[17] = peptide treatment concentration 6 μg/ml
[18] = peptide treatment concentration 8 μg/ml
[19] = peptide treatment concentration 16 μg/ml
[20] = peptide treatment concentration 32 μg/ml
[21] = peptide treatment concentration 64 μg/ml

## CC[C@H](C)[C@H](NC(=O)[C@H](CCCCN)NC(=O)[C@H](Cc1c[nH]c2ccccc12)NC(=O)[C@@H](N)CCCNC(=N)N)C(=O)N[C@@H](Cc1ccccc1)C(=O)N[C@@H](CCCCN)C(=O)N[C@@H](CCCCN)C(=O)N[C@H](C(=O)N1CCC[C@H]1C(=O)N[C@@H](CCCCN)C(=O)N[C@@H](CC(C)C)C(=O)N[C@@H](CC(C)C)C(=O)N[C@@H](Cc1c[nH]cn1)C(=O)N[C@@H](CO)C(=O)N[C@@H](C)C(=O)N[C@@H](CCCCN)C(=O)N[C@@H](CCCCN)C(=O)N[C@@H](Cc1c[nH]c2ccccc12)C(N)=O)[C@@H](C)CC [PapMA-9, RWK IFK KIP KLL HSA KKW-NH2] (H-RWKIFKKIPKLLHSAKKW-NH2; N-terminus assumed)
A. baumannii [1]; A. baumannii and MDRAB 12035
  Synergistic effect of antibacterial activity with existing antibiotics compared with PapMA-1: higher level than the PapMA-1 peptide
A. baumannii [1]; [5]
  Antibiotic MIC, Erythromycin: 32 µg/mL
  Antibiotic MIC, Linezolid: >128 µg/mL
  Antibiotic MIC, Vancomycin: >128 µg/mL
A. baumannii [1]; [6]
  Antibiotic MIC, Erythromycin: 8 µg/mL
  Antibiotic MIC, Linezolid: 128 µg/mL
  Antibiotic MIC, Vancomycin: 128 µg/mL
A. baumannii [1]; [7]
  Antibiotic MIC, Erythromycin: 4 µg/mL
  Antibiotic MIC, Linezolid: 8 µg/mL
  Antibiotic MIC, Vancomycin: 32 µg/mL
A. baumannii [1]; [8]
  Antibiotic MIC, Erythromycin: 2 µg/mL
  Antibiotic MIC, Linezolid: 8 µg/mL
  Antibiotic MIC, Vancomycin: 16 µg/mL
A. baumannii [1]; [9]
  Antibiotic MIC, Erythromycin: 0.25 µg/mL
  Antibiotic MIC, Linezolid: 2 µg/mL
  Antibiotic MIC, Vancomycin: 8 µg/mL
A. baumannii [1]; [10]
  Antibiotic MIC, Erythromycin: 0.125 µg/mL
  Antibiotic MIC, Linezolid: 0.5 µg/mL
  Antibiotic MIC, Vancomycin: 2 µg/mL
A. baumannii [1]; [11]
  Antibiotic MIC, Erythromycin: 0 µg/mL
  Antibiotic MIC, Linezolid: 0 µg/mL
  Antibiotic MIC, Vancomycin: 0 µg/mL
A. baumannii [1]; [12]
  Antibiotic MIC, Erythromycin: 0 µg/mL
  Antibiotic MIC, Linezolid: 0 µg/mL
  Antibiotic MIC, Vancomycin: 0 µg/mL
MDRPA 2002
  Minimal inhibitory concentration MIC: 16 µg/mL (≈ 6.94 µM)
MDRPA 2003
  Minimal inhibitory concentration MIC: 16 µg/mL (≈ 6.94 µM)
MDREC 1229; [13]
  Peptide MIC: 0 µg/mL
MDREC 1229; with Linezolid 512 μg/ml (Conc./MIC 1)
  Peptide MIC: 0 µg/mL
E. coli; [13]
  Peptide MIC: 0 µg/mL
E. coli; with Linezolid […] (Conc./MIC 1)
  Peptide MIC: 0 µg/mL
E. coli; with Vancomycin 1024 μg/ml (Conc./MIC 1)
  Peptide MIC: 0 µg/mL
A. baumannii [2]
  Minimal inhibitory concentration MIC: 32 µg/mL (≈ 13.9 µM)
  Peptide MIC, peptide alone: 32 µg/mL
MDRAB 12035 [3]
  Minimal inhibitory concentration MIC: 64 µg/mL (≈ 27.7 µM)
  Peptide MIC, peptide alone: 64 µg/mL
B. subtilis
  Minimal inhibitory concentration MIC: >128 µg/mL
MDRAB 12035 [4]; [14]
  Erythromycin MIC during combined treatment with peptide: 16 µg/mL
  Linezolid MIC during combined treatment with peptide: >128 µg/mL
  Vancomycin MIC during combined treatment with peptide: >128 µg/mL
MDRAB 12035 [4]; [15]
  Erythromycin MIC during combined treatment with peptide: 16 µg/mL
  Linezolid MIC during combined treatment with peptide: 64 µg/mL
  Vancomycin MIC during combined treatment with peptide: 128 µg/mL
MDRAB 12035 [4]; [16]
  Erythromycin MIC during combined treatment with peptide: 4 µg/mL
  Linezolid MIC during combined treatment with peptide: 32 µg/mL
  Vancomycin MIC during combined treatment with peptide: 64 µg/mL
MDRAB 12035 [4]; [17]
  Erythromycin MIC during combined treatment with peptide: 0.5 µg/mL
  Linezolid MIC during combined treatment with peptide: 16 µg/mL
  Vancomycin MIC during combined treatment with peptide: 16 µg/mL
MDRAB 12035 [4]; [18]
  Erythromycin MIC during combined treatment with peptide: 0.25 µg/mL
  Linezolid MIC during combined treatment with peptide: 4 µg/mL
  Vancomycin MIC during combined treatment with peptide: 8 µg/mL
MDRAB 12035 [4]; [19]
  Erythromycin MIC during combined treatment with peptide: 0.25 µg/mL
  Linezolid MIC during combined treatment with peptide: 4 µg/mL
  Vancomycin MIC during combined treatment with peptide: 8 µg/mL
MDRAB 12035 [4]; [20]
  Erythromycin MIC during combined treatment with peptide: 0.125 µg/mL
  Linezolid MIC during combined treatment with peptide: 2 µg/mL
  Vancomycin MIC during combined treatment with peptide: 2 µg/mL
MDRAB 12035 [4]; [21]
  Erythromycin MIC during combined treatment with peptide: 0 µg/mL
  Linezolid MIC during combined treatment with peptide: 0 µg/mL
  Vancomycin MIC during combined treatment with peptide: 0 µg/mL
